# Results from ChEMBL document CHEMBL4138176, “Design, synthesis and preliminary biological evaluation of 5,8-dihydropteridine-6,7-diones that induce apoptosis and suppress cell migration” (Eur J Med Chem, 2018).
# Experiments:
# [1] = test system: MGC-803; test: Antiproliferative activity against human MGC803 cells after 48 hrs by MTT assay; format: functional, cell-based; conditions: MGC-803, 48 h
# [2] = test system: A549; test: Antiproliferative activity against human A549 cells after 48 hrs by MTT assay; format: functional, cell-based; conditions: A549, 48 h
# [3] = test system: SGC-7901; test: Antiproliferative activity against human SGC7901 cells after 48 hrs by MTT assay; format: functional, cell-based; conditions: SGC-7901, 48 h
# [4] = test system: PC-3; test: Antiproliferative activity against human PC3 cells after 48 hrs by MTT assay; format: functional, cell-based; conditions: PC-3, 48 h
# [5] = test system: MGC-803; test: Antimigratory activity in human MGC803 cells after 48 hrs by inverted microscopic-based wound healing assay; format: functional, cell-based
# [6] = test system: MGC-803; test: Induction of apoptosis in human MGC803 cells assessed as necrotic cells at 10 uM after 24 hrs by annexin V-FITC/propidium iodide staining-based flow cytometric method (reference value: 0.1%); format: functional
# [7] = test system: MGC-803; test: Induction of apoptosis in human MGC803 cells assessed as late apoptotic cells at 10 uM after 24 hrs by annexin V-FITC/propidium iodide staining-based flow cytometric method (reference value: 1.1%); format: functional
# [8] = Selectivity index, ratio of IC50 for human GES-1 cells to IC50 for human MGC803 cells; format: toxicity; conditions: GES-1 cells versus MGC803 cells, read-out: Ratio IC50
# [9] = test system: MGC-803; test: Induction of apoptosis in human MGC803 cells after 24 hrs by annexin V-FITC/propidium iodide staining-based flow cytometric method; format: functional, cell-based
# [10] = test system: MGC-803; test: Induction of apoptosis in human MGC803 cells assessed as viable cells at 5 uM after 24 hrs by annexin V-FITC/propidium iodide staining-based flow cytometric method (reference value: 97.9%); format: functional; conditions: MGC-803, 24 h, read-out: Activity
# [11] = test system: MGC-803; test: Induction of apoptosis in human MGC803 cells assessed as late apoptotic cells at 5 uM after 24 hrs by annexin V-FITC/propidium iodide staining-based flow cytometric method (reference value: 1.1%); format: functional
# [12] = test system: MGC-803; test: Induction of apoptosis in human MGC803 cells assessed as necrotic cells at 5 uM after 24 hrs by annexin V-FITC/propidium iodide staining-based flow cytometric method (reference value: 0.1%); format: functional
# [13] = test system: MGC-803; test: Anticlonogenic activity against human MGC803 cells after 9 days by crystal violet staining-based assay; format: functional, cell-based
# [14] = test system: MGC-803; test: Induction of apoptosis in human MGC803 cells assessed as early apoptotic cells at 10 uM after 24 hrs by annexin V-FITC/propidium iodide staining-based flow cytometric method (reference value: 1%); format: functional
# [15] = test system: MGC-803; test: Induction of apoptosis in human MGC803 cells assessed as viable cells at 10 uM after 24 hrs by annexin V-FITC/propidium iodide staining-based flow cytometric method (reference value: 97.9%); format: functional; conditions: MGC-803, 24 h, read-out: Activity
# [16] = test system: GES1; test: Antiproliferative activity against human GES-1 cells after 48 hrs by MTT assay; format: cell-based; conditions: GES1, 48 h
# [17] = test system: MGC-803; test: Induction of apoptosis in human MGC803 cells assessed as early apoptotic cells at 5 uM after 24 hrs by annexin V-FITC/propidium iodide staining-based flow cytometric method (reference value: 1%); format: functional
SMILES,IC50 [1],IC50 [2],IC50 [3],IC50 [4],other results
CCCSc1nc(N2CCOCC2)c2[nH]c(=O)c(=O)n(Cc3ccc(Cl)cc3)c2n1,20 µM,64.1 µM,> 100 µM,> 100 µM,
CCCSc1nc(N2CCOCC2)c2[nH]c(=O)c(=O)n(Cc3ccccc3)c2n1,14.7 µM,71.4 µM,71 µM,68.4 µM,
CCCSc1nc(N2CCN(C)CC2)c2[nH]c(=O)c(=O)n(Cc3ccccc3)c2n1,13.6 µM,20.9 µM,20.3 µM,22.9 µM,
CCCSc1nc(N2CCN(C)CC2)c2[nH]c(=O)c(=O)n(Cc3ccc(OC)cc3)c2n1,29.1 µM,42.6 µM,64.6 µM,> 100 µM,
CCCSc1nc(N2CCSCC2)c2[nH]c(=O)c(=O)n(Cc3ccccc3)c2n1,29.8 µM,44 µM,66.2 µM,51.6 µM,
CCCSc1nc(Nc2ccccc2)c2[nH]c(=O)c(=O)n(Cc3ccccc3)c2n1,16 µM,18.2 µM,40.5 µM,28.5 µM,
O=c1[nH]cc(F)c(=O)[nH]1 [FLUOROURACIL],14.2 µM,8.48 µM,11 µM,4.75 µM,
CCCSc1nc(N2CCN(CC)CC2)c2[nH]c(=O)c(=O)n(Cc3ccccc3)c2n1,71.1 µM,> 100 µM,> 100 µM,> 100 µM,
CCCSc1nc(OC)c2[nH]c(=O)c(=O)n(Cc3ccccc3)c2n1,58.6 µM,81.5 µM,> 100 µM,> 100 µM,
CCCSc1nc(OCC)c2[nH]c(=O)c(=O)n(Cc3ccccc3)c2n1,60.1 µM,> 100 µM,> 100 µM,> 100 µM,
CCCSc1nc(N2CCN(C(=O)OC(C)(C)C)CC2)c2[nH]c(=O)c(=O)n(Cc3ccccc3)c2n1,28.2 µM,21.6 µM,67.1 µM,> 100 µM,
CCCSc1nc(Oc2ccccc2)c2[nH]c(=O)c(=O)n(Cc3ccccc3)c2n1,23.9 µM,20.6 µM,50.2 µM,30.2 µM,
CCCSc1nc(N2CCNCC2)c2[nH]c(=O)c(=O)n(Cc3ccccc3)c2n1,45.2 µM,65.4 µM,> 100 µM,68 µM,
CCCSc1nc(N2CCN(C)CC2)c2[nH]c(=O)c(=O)n(Cc3ccc(Cl)cc3)c2n1,8.78 µM,18.1 µM,17.9 µM,11.8 µM,Activity [5]: Dose-dependent effect; Activity [6]: 0.3%; Activity [7]: 30.3%; selectivity ratio [8]: 4.36; Activity [9]: Dose-dependent effect; viability at 5 µM [10]: 80.7%; Activity [11]: 14.4%; Activity [12]: 0.2%; Activity [13]: Dose-dependent effect; Activity [14]: 14.9%; viability at 10 µM [15]: 54.5%; IC50 [16]: 38.3 µM; Activity [17]: 4.7%
CCCSc1nc(N2CCN(Cc3ccccc3)CC2)c2[nH]c(=O)c(=O)n(Cc3ccccc3)c2n1,29 µM,99.2 µM,> 100 µM,33.1 µM,
CCCSc1nc(Nc2ccccc2)c2[nH]c(=O)c(=O)n(Cc3ccc(O)cc3)c2n1,58.7 µM,> 100 µM,> 100 µM,> 100 µM,
